In ChEMBL document CHEMBL4419178, “Yap1 inhibitors that target the interaction of yap1 with oct4” (2018):
Calls of active or inactive are those of the source. No cut-off for these calls is given here.

Tests used:
NCI-H1703 [1] = assay: Effect on expression of Nanog mRNA expression in human NCI-H1703 cells at 5 to 10 uM incubated for 72 hrs by RT-PCR method; format: cell-based; conditions: nci-h1703, 72 h
[2] = molecular target: Transcriptional coactivator YAP1 (Homo sapiens) (UniProt P46937); assay: Inhibition of YAP1 in human NCI-H1703 cells assessed as suppression of vimentin mRNA expression at 5 to 10 uM incubated for 72 hrs by RT-PCR method; format: cell-based
NCI-H1650 [3] = assay: Inhibition of self-renewal capacity in cisplatin insensitive stem-like side-population cells of human NCI-H1650 cells assessed as reduction in number of spheres at 2 uM incubated for 5 days after 7 days cisplatin exposure by sphere formation assay; format: functional, cell-based
[4] = molecular target: Transcriptional coactivator YAP1 (Homo sapiens) (UniProt P46937); assay: Inhibition of YAP1 in human NCI-H1650 cells assessed as reduction in Sox2 protein expression at 50 uM by luciferase reporter gene assay; format: cell-based
[5] = molecular target: Transcriptional coactivator YAP1 (Homo sapiens) (UniProt P46937); assay: Inhibition of YAP1 in human NCI-H146 cells assessed as suppression of HK2 mRNA expression at 5 to 10 uM incubated for 72 hrs by RT-PCR method; format: cell-based
[6] = molecular target: Transcriptional coactivator YAP1 (Homo sapiens) (UniProt P46937); assay: Inhibition of YAP1 in human NCI-H146 cells assessed as suppression of PDK2 mRNA expression at 5 to 10 uM incubated for 72 hrs by RT-PCR method; format: cell-based
NCI-H1703 [7] = assay: Effect on expression of Oct4 mRNA expression in human NCI-H1703 cells at 5 to 10 uM incubated for 72 hrs by RT-PCR method; format: cell-based; conditions: nci-h1703, 72 h
[8] = molecular target: Transcriptional coactivator YAP1 (Homo sapiens) (UniProt P46937); assay: Inhibition of YAP1 in human NCI-H1650 cells assessed as suppression of HK2 mRNA expression at 5 to 10 uM incubated for 72 hrs by RT-PCR method; format: cell-based
NCI-H1703 [9] = assay: Inhibition of YAP1/TEAD2 interaction in human NCI-H1703 cells assessed as suppression of CTGF mRNA expression at 5 to 10 uM incubated for 72 hrs by RT-PCR method; format: cell-based
NCI-H1650 [10] = assay: Effect on expression of Nanog mRNA expression in human NCI-H1650 cells at 5 to 10 uM incubated for 72 hrs by RT-PCR method; format: cell-based; conditions: nci-h1650, 72 h
NCI-H1975 = assay: Cytotoxicity in gefitinib and erlotinib resistant human NCI-H1975 cells assessed as reduction in cell viability at 1 to 10 uM incubated for 72 hrs by MTT assay; format: functional, cell-based
NCI-H146 [11] = assay: Effect on expression of Nanog mRNA expression in human NCI-H146 cells at 5 to 10 uM incubated for 72 hrs by RT-PCR method; format: cell-based; conditions: nci-h146, 72 h
[12] = molecular target: Transcriptional coactivator YAP1 (Homo sapiens) (UniProt P46937); assay: Inhibition of YAP1 in human NCI-H1650 cells assessed as suppression of PD-L1 mRNA expression at 5 to 10 uM incubated for 72 hrs by RT-PCR method; format: cell-based
NCI-H1650 [13] = assay: Inhibition of YAP1/TEAD2 interaction in human NCI-H1650 cells assessed as suppression of CTGF mRNA expression at 5 to 10 uM incubated for 72 hrs by RT-PCR method; format: cell-based
HUVEC = assay: Inhibition of angiogenic tubule formation in HUVEC at 1 to 5 uM incubated for 18 to 24 hrs; format: functional, cell-based; conditions: Homo sapiens
SK-MEL-5 = assay: Cytotoxicity in human SK-MEL-5 cells assessed as reduction in cell viability at 0.5 to 20 uM incubated for 72 hrs by MTT assay; format: functional, cell-based
A549 = assay: Cytotoxicity in human A549 cells assessed as reduction in cell viability at 0.5 to 20 uM incubated for 72 hrs by MTT assay; format: functional, cell-based
NCI-H1650 [14] = assay: Inhibition of self-renewal capacity in stem-like side-population cells of human NCI-H1650 cells assessed as reduction in number of spheres at 50 uM incubated for 10 days by sphere formation assay relative to control; format: functional; conditions: NCI-H1650, 240 h
[15] = molecular target: Transcriptional coactivator YAP1 (Homo sapiens) (UniProt P46937); assay: Inhibition of YAP1 in human NCI-H1650 cells assessed as suppression of Sox2 mRNA expression at 5 to 10 uM incubated for 72 hrs by RT-PCR method; format: cell-based
[16] = molecular target: Transcriptional coactivator YAP1 (Homo sapiens) (UniProt P46937); assay: Inhibition of YAP1 in human NCI-H1703 cells assessed as suppression of PD-L1 mRNA expression at 5 to 10 uM incubated for 72 hrs by RT-PCR method; format: cell-based
[17] = molecular target: Transcriptional coactivator YAP1 (Homo sapiens) (UniProt P46937); assay: Inhibition of YAP1 in human NCI-H1703 cells assessed as suppression of HK2 mRNA expression at 5 to 10 uM incubated for 72 hrs by RT-PCR method; format: cell-based
NCI-H146 [18] = assay: Inhibition of self-renewal capacity in methotrexate insensitive stem-like side-population cells of human NCI-H146 cells assessed as reduction in number of spheres at 2 uM incubated for 3 days after 7 days methotrexate exposure by sphere formation assay; format: functional
[19] = molecular target: Transcriptional coactivator YAP1 (Homo sapiens) (UniProt P46937); assay: Inhibition of YAP1 in human NCI-H1703 cells assessed as suppression of fibronectin mRNA expression at 5 to 10 uM incubated for 72 hrs by RT-PCR method; format: cell-based
[20] = molecular target: Transcriptional coactivator YAP1 (Homo sapiens) (UniProt P46937); assay: Inhibition of YAP1 in human NCI-H1703 cells assessed as suppression of Sox2 mRNA expression at 5 to 10 uM incubated for 72 hrs by RT-PCR method; format: cell-based
NCI-H1650 [21] = assay: Effect on expression of Oct4 mRNA expression in human NCI-H1650 cells at 5 to 10 uM incubated for 72 hrs by RT-PCR method; format: cell-based; conditions: nci-h1650, 72 h
HCC827 = assay: Cytotoxicity in erlotinib-resistant human HCC827 cells assessed as reduction in cell viability at 1 to 20 uM by MTT assay; format: functional, cell-based
[22] = molecular target: Transcriptional coactivator YAP1 (Homo sapiens) (UniProt P46937); assay: Inhibition of YAP1 in human NCI-H1703 cells assessed as suppression of PDK2 mRNA expression at 5 to 10 uM incubated for 72 hrs by RT-PCR method; format: cell-based
PC-9 = assay: Cytotoxicity in gefitinib resistant human PC9 cells assessed as reduction in cell viability at 1 to 20 uM by MTT assay; format: functional, cell-based
[23] = molecular target: Transcriptional coactivator YAP1 (Homo sapiens) (UniProt P46937); assay: Inhibition of YAP1 in human NCI-H146 cells assessed as suppression of Sox2 mRNA expression at 5 to 10 uM incubated for 72 hrs by RT-PCR method; format: cell-based
[24] = molecular target: Transcriptional coactivator YAP1 (Homo sapiens) (UniProt P46937); assay: Inhibition of YAP1 in human NCI-H1650 cells assessed as disruption in YAP1/OCT4 interaction at 5 uM incubated for 72 hrs by immunoprecipitation-Westem blot assay; format: cell-based
[25] = molecular target: Transcriptional coactivator YAP1 (Homo sapiens) (UniProt P46937); assay: Inhibition of YAP1 in human NCI-H1650 cells assessed as suppression of fibronectin mRNA expression at 5 to 10 uM incubated for 72 hrs by RT-PCR method; format: cell-based
[26] = molecular target: Transcriptional coactivator YAP1 (Homo sapiens) (UniProt P46937); assay: Inhibition of YAP1 in human NCI-H1650 cells assessed as suppression of PDK2 mRNA expression at 5 to 10 uM incubated for 72 hrs by RT-PCR method; format: cell-based
[27] = molecular target: Transcriptional coactivator YAP1 (Homo sapiens) (UniProt P46937); assay: Inhibition of YAP1 (unknown origin) assessed as disruption in YAP1/OCT4 interaction at 50 uM by cell based assay
NCI-H1703 [28] = assay: Cytotoxicity in human NCI-H1703 cells assessed as reduction in cell viability at 0.5 to 20 uM incubated for 96 hrs by MTT assay; format: functional, cell-based
Homo sapiens [29] = species: Homo sapiens; assay: Cytotoxicity in human 92-1 cells assessed as reduction in cell viability at 0.5 to 20 uM incubated for 72 hrs by MTT assay; format: functional, cell-based
NCI-H1650 [30] = assay: Cytotoxicity in human NCI-H1650 cells assessed as reduction in cell viability at 0.5 to 20 uM incubated for 72 hrs by MTT assay; format: functional, cell-based
NCI-H226 = assay: Cytotoxicity in human NCI-H226 cells assessed as reduction in cell viability at 0.5 to 20 uM incubated for 96 hrs by MTT assay; format: functional, cell-based
[31] = molecular target: Transcriptional coactivator YAP1 (Homo sapiens) (UniProt P46937); assay: Inhibition of YAP1 in human A549 cells assessed as disruption in YAP1/OCT4 interaction at 5 uM incubated for 72 hrs by immunoprecipitation-Westem blot assay; format: cell-based
NCI-H146 [32] = assay: Effect on expression of Oct4 mRNA expression in human NCI-H146 cells at 5 to 10 uM incubated for 72 hrs by RT-PCR method; format: cell-based; conditions: nci-h146, 72 h
Homo sapiens [33] = species: Homo sapiens; assay: Cytotoxicity in human WM1366 cells assessed as reduction in cell viability at 0.5 to 20 uM incubated for 72 hrs by MTT assay; format: functional, cell-based
[34] = molecular target: Transcriptional coactivator YAP1 (Homo sapiens) (UniProt P46937); assay: Inhibition of YAP1 in human NCI-H1650 cells assessed as suppression of vimentin mRNA expression at 5 to 10 uM incubated for 72 hrs by RT-PCR method; format: cell-based
[35] = molecular target: Transcriptional coactivator YAP1 (Homo sapiens) (UniProt P46937); assay: Inhibition of YAP1 (unknown origin) assessed as disruption in YAP1/OCT4 interaction at 5 uM by ELISA relative to control

Sequence of Transcriptional coactivator YAP1 (Homo sapiens) (P46937 whole entry): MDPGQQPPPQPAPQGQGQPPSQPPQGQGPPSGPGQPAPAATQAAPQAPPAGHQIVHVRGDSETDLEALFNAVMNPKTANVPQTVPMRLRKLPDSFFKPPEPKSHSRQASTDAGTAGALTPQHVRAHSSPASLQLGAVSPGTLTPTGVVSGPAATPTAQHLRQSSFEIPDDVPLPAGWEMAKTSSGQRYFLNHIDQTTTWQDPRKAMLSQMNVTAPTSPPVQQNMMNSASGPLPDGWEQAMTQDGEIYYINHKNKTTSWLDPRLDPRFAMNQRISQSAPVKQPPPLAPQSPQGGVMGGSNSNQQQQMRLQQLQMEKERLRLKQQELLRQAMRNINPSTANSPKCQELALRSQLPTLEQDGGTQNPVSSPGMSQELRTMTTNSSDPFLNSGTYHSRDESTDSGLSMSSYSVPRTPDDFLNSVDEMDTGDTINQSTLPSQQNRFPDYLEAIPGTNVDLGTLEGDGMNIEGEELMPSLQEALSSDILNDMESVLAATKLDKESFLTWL

inhibition [2]: Active | inhibition [4]: 85.3% | inhibition [5]: Active | inhibition [6]: Active | inhibition [8]: Active | inhibition [12]: Active | inhibition [15]: Active | inhibition [16]: Active | inhibition [17]: Active | inhibition [19]: Active | inhibition [20]: Active | inhibition [22]: Active | inhibition [23]: Active | inhibition [24]: Active | inhibition [25]: Active | inhibition [26]: Active | inhibition [27]: > 85% | inhibition [31]: Active | inhibition [34]: Active | inhibition [35]: 95%
SMILES: O=C(CC1CCN(C(=O)CCc2ccccc2)CC1)N[C@@H](Cc1ccc(OCc2ccccc2)cc1)C(=O)O
Activity (NCI-H1703 [1]): Non-Toxic | inhibition (NCI-H1650 [3]): Active | Activity (NCI-H1703 [7]): Non-Toxic | inhibition (NCI-H1703 [9]): inactive | Activity (NCI-H1650 [10]): Non-Toxic | Activity (NCI-H1975): Active | Activity (NCI-H146 [11]): Non-Toxic | inhibition (NCI-H1650 [13]): inactive | inhibition (HUVEC): Active | Activity (SK-MEL-5): Active | Activity (A549): Active | inhibition at 50 µM (NCI-H1650 [14]): 72.6% | inhibition (NCI-H146 [18]): Active | Activity (NCI-H1650 [21]): Non-Toxic | Activity (HCC827): Active | Activity (PC-9): Active | Activity (NCI-H1703 [28]): Active | Activity (Homo sapiens [29]): Active | Activity (NCI-H1650 [30]): Active | Activity (NCI-H226): Active | Activity (NCI-H146 [32]): Non-Toxic | Activity (Homo sapiens [33]): Active
